# Results as given in US9657080B2, “Methods for treating diseases with peptides that inhibit IGF-1” (Universite Pierre et Marie Curie (Paris 6), priority 2009, dated 2017).
# Where no end group is shown, it is not given here.
# Tested on: female rats
# Test: Subcutaneous administration to female rats: GH effects and anti-peptide antibody
# Assay type: in vivo
substance,measurement,value
"Ac-GTSDRVYEKLAGSKNFFWKTFTSS [P7, Acetyl-GTSDRVYEKLAGSKNFFWKTFTSS]",anti-peptide antibody induction,"without inducing, nevertheless, anti-peptide antibody"
